28 compounds from patent US8143263B2, “Therapeutic agents” (Astrazeneca AB, priority 2008, dated 2012) can be followed below.

As a reminder, the EC50 is the midpoint of the concentration-response curve.

This assay concerns the target T1, recombinant human pancreatic GLK (Homo sapiens, UniProt P35557).
T1 sequence (P35557 1-465): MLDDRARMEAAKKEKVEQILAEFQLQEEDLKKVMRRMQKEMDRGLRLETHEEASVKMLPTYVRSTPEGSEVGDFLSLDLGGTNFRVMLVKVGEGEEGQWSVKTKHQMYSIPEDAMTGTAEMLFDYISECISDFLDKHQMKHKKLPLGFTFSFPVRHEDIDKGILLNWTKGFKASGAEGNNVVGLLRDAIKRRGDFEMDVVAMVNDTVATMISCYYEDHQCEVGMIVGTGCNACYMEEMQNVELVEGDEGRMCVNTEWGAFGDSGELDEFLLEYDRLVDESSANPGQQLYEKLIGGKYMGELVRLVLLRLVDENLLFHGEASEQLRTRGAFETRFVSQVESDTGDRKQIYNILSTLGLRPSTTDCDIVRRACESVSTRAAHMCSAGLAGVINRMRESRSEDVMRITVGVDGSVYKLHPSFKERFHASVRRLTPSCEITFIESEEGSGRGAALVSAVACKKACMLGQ
The assay is described as follows: biochemical.
For `N#Cc1ccc(NC(=O)[C@H](CCCO)Oc2ncnc3c2cnn3-c2ncccc2Cl)nc1` [Example 213, (2S)-2-(1-(3-chloropyridin-2-yl)-1H-pyrazolo[3,4-d]pyrimidin-4-yloxy)-N-(5-cyanopyridin-2-yl)-5-hydroxypentanamide], the EC50 was 1100 nM.
With `CCOC[C@H](Oc1ncnc2c1cnn2-c1cccc(Cl)c1Cl)C(=O)Nc1ccc(C#N)cn1` [Example 214, (2S)—N-(5-cyanopyridin-2-yl)-2-(1-(2,3-dichlorophenyl)-1H-pyrazolo[3,4-d]pyrimidin-4-yloxy)-3-ethoxypropanamide] the figure was 320 nM; with `O=C(Nc1ccc(F)cn1)[C@H](CN1CC(O)C1)Oc1ncnc2c1cnn2-c1ccccc1Cl` [Example 215, (2S)-2-[1-(2-chlorophenyl)pyrazolo[4,5-e]pyrimidin-4-yl]oxy-N-(5-fluoro-2-pyridyl)-3-(3-hydroxyazetidin-1-yl)propanamide], 229 nM.
To `C[C@H](CO)OC[C@H](Oc1ncnc2c1cnn2-c1c(Cl)cccc1C#N)C(=O)Nc1ccc(Cl)cn1` [Example 216, (2S)-2-[1-(2-chloro-6-cyano-phenyl)pyrazolo[4,5-e]pyrimidin-4-yl]oxy-N-(5-chloro-2-pyridyl)-3-[(1R)-2-hydroxy-1-methyl-ethoxy]propanamide] belongs 163 nM.
For the compound `O=C(Nc1ccc(F)cn1)[C@H](COCCO)Oc1ncnc2c1cnn2-c1c(Cl)cccc1Cl` [Example 218, (2S)-2-[1-(2,6-dichlorophenyl)pyrazolo[4,5-e]pyrimidin-4-yl]oxy-N-(5-fluoro-2-pyridyl)-3-(2-hydroxyethoxy)propanamide], the EC50 is 215 nM.
Consider `Cc1cnc(NC(=O)[C@H](CN2CC(O)C2)Oc2ncnc3c2cnn3-c2ccccc2Cl)cn1` [Example 219, (2S)-2-[1-(2-chlorophenyl)pyrazolo[4,5-e]pyrimidin-4-yl]oxy-3-(3-hydroxyazetidin-1-yl)-N-(5-methylpyrazin-2-yl)propanamide], for which the EC50 worked out at 280 nM.
Turning to `N#Cc1cccc(Cl)c1-n1ncc2c(O[C@@H](CN3CCC3)C(=O)Nc3ccccn3)ncnc21` [Example 221, (2S)-3-(azetidin-1-yl)-2-[1-(2-chloro-6-cyano-phenyl)pyrazolo[3,4-d]pyrimidin-4-yl]oxy-N-(2-pyridyl)propanamide], the EC50 is 310 nM.
On to `O=C(Nc1ccccn1)[C@H](CN1CC(O)C1)Oc1ncnc2c1cnn2-c1c(F)cccc1Cl` [Example 222, (2S)-2-[1-(2-chloro-6-fluoro-phenyl)pyrazolo[3,4-d]pyrimidin-4-yl]oxy-3-(3-hydroxyazetidin-1-yl)-N-(2-pyridyl)propanamide], for which the EC50 was 140 nM.
With `N#Cc1ccc(NC(=O)[C@H](CN2CC(O)C2)Oc2ncnc3c2cnn3-c2ccccc2Cl)nc1` [Example 223, (2S)-2-[1-(2-chlorophenyl)pyrazolo[3,4-d]pyrimidin-4-yl]oxy-N-(5-cyano-2-pyridyl)-3-(3-hydroxyazetidin-1-yl)propanamide] the figure was 310 nM; with `N#Cc1ccc(NC(=O)[C@H](CN2CC(O)C2)Oc2ncnc3c2cnn3-c2c(Cl)cccc2C#N)nc1` [Example 224, (2S)-2-[1-(2-chloro-6-cyano-phenyl)pyrazolo[3,4-d]pyrimidin-4-yl]oxy-N-(5-cyano-2-pyridyl)-3-(3-hydroxyazetidin-1-yl)propanamide], 510 nM.
With `O=C(Nc1ccccn1)[C@H](CN1CC(O)C1)Oc1ncnc2c1cnn2-c1ccccc1Cl` [Example 225, (2S)-2-[1-(2-chlorophenyl)pyrazolo[3,4-d]pyrimidin-4-yl]oxy-3-(3-hydroxyazetidin-1-yl)-N-(2-pyridyl)propanamide] the figure was 220 nM; with `O=C(Nc1ccc(Cl)cn1)[C@H](CN1CC(O)C1)Oc1ncnc2c1cnn2-c1ccccc1Cl` [Example 226, (2S)-2-[1-(2-chlorophenyl)pyrazolo[3,4-d]pyrimidin-4-yl]oxy-N-(5-chloro-2-pyridyl)-3-(3-hydroxyazetidin-1-yl)propanamide], 130 nM.
Take `Cc1ccc(NC(=O)[C@H](CO[C@H](C)CO)Oc2ncnc3c2cnn3-c2cscc2C)nc1` [Example 227, (2S)-3-[(1R)-2-hydroxy-1-methyl-ethoxy]-N-(5-methyl-2-pyridyl)-2-[1-(4-methyl-3-thienyl)pyrazolo[3,4-d]pyrimidin-4-yl]oxy-propanamide]: the EC50 amounted to 320 nM.
With `O=C(Nc1ccccn1)[C@H](CN1CC(CO)C1)Oc1ncnc2c1cnn2-c1ccccc1Cl` [Example 228, (2S)-2-[1-(2-chlorophenyl)pyrazolo[3,4-d]pyrimidin-4-yl]oxy-3-[3-(hydroxymethyl)azetidin-1-yl]-N-(2-pyridyl)propanamide] the figure was 460 nM.
With `O=C(Nc1ccc(F)cn1)[C@H](CN1CC(O)C1)Oc1ncnc2c1cnn2-c1c(F)cccc1Cl` [Example 229, (2S)-2-[1-(2-chloro-6-fluoro-phenyl)pyrazolo[3,4-d]pyrimidin-4-yl]oxy-N-(5-fluoro-2-pyridyl)-3-(3-hydroxyazetidin-1-yl)propanamide] the figure was 110 nM; with `O=C(Nc1ccc(F)cn1)[C@H](CN1CC(O)C1)Oc1ncnc2c1cnn2-c1c(Cl)cccc1Cl` [Example 230, (2S)-2-[1-(2,6-dichlorophenyl)pyrazolo[3,4-d]pyrimidin-4-yl]oxy-N-(5-fluoro-2-pyridyl)-3-(3-hydroxyazetidin-1-yl)propanamide], 110 nM; with `C[C@H](CO)OC[C@H](Oc1ncnc2c1cnn2-c1c(Cl)cccc1C#N)C(=O)Nc1ccccn1` [Example 231, (2S)-2-[1-(2-chloro-6-cyano-phenyl)pyrazolo[3,4-d]pyrimidin-4-yl]oxy-3-[(1R)-2-hydroxy-1-methyl-ethoxy]-N-(2-pyridyl)propanamide], 260 nM.
With `Cc1ccc(NC(=O)[C@H](CO[C@H](C)CO)Oc2ncnc3c2cnn3-c2ncccc2Cl)nc1` [Example 232, (2S)-2-[1-(3-chloro-2-pyridyl)pyrazolo[3,4-d]pyrimidin-4-yl]oxy-3-[(1R)-2-hydroxy-1-methyl-ethoxy]-N-(5-methyl-2-pyridyl)propanamide] the figure was 540 nM.
Regarding `O=C(Nc1ccccn1)[C@H](CN1CC(O)C1)Oc1ncnc2c1cnn2-c1c(Cl)cccc1Cl` [Example 233, (2S)-2-[1-(2,6-dichlorophenyl)pyrazolo[3,4-d]pyrimidin-4-yl]oxy-3-(3-hydroxyazetidin-1-yl)-N-(2-pyridyl)propanamide], the EC50 amounted to 210 nM.
With `N#Cc1ccc(NC(=O)[C@H](CN2CC(O)C2)Oc2ncnc3c2cnn3-c2c(Cl)cccc2Cl)nc1` [Example 234, (2S)—N-(5-cyano-2-pyridyl)-2-[1-(2,6-dichlorophenyl)pyrazolo[3,4-d]pyrimidin-4-yl]oxy-3-(3-hydroxyazetidin-1-yl)propanamide] the figure was 210 nM; with `N#Cc1ccc(NC(=O)[C@H](COCCO)Oc2ncnc3c2cnn3-c2c(Cl)cccc2Cl)nc1` [Example 235, (2S)—N-(5-cyano-2-pyridyl)-2-[1-(2,6-dichlorophenyl)pyrazolo[3,4-d]pyrimidin-4-yl]oxy-3-(2-hydroxyethoxy)propanamide], 400 nM.
In the case of `C[C@H](CO)OC[C@H](Oc1ncnc2c1cnn2-c1c(C#N)cccc1C#N)C(=O)Nc1ccc(Cl)cn1` [Example 236, (2S)—N-(5-chloro-2-pyridyl)-2-[1-(2,6-dicyanophenyl)pyrazolo[3,4-d]pyrimidin-4-yl]oxy-3-[(1R)-2-hydroxy-1-methyl-ethoxy]propanamide], the EC50 worked out at 740 nM.
For the compound `N#Cc1cccc(Cl)c1-n1ncc2c(O[C@@H](COCCO)C(=O)Nc3ccc(F)cn3)ncnc21` [Example 237, (2S)-2-[1-(2-chloro-6-cyano-phenyl)pyrazolo[3,4-d]pyrimidin-4-yl]oxy-N-(5-fluoro-2-pyridyl)-3-(2-hydroxyethoxy)propanamide], the concentration giving a half-maximal response (EC50) amounted to 470 nM.
To `N#Cc1cccc(Cl)c1-n1ncc2c(O[C@@H](COCCO)C(=O)Nc3ccccn3)ncnc21` [Example 238, (2S)-2-[1-(2-chloro-6-cyano-phenyl)pyrazolo[3,4-d]pyrimidin-4-yl]oxy-3-(2-hydroxyethoxy)-N-(2-pyridyl)propanamide] belongs 420 nM; to `Cc1cnc(NC(=O)[C@H](CN2CC(O)C2)Oc2ncnc3c2cnn3-c2c(Cl)cccc2C#N)cn1` [Example 239, (2S)-2-[1-(2-chloro-6-cyano-phenyl)pyrazolo[3,4-d]pyrimidin-4-yl]oxy-3-(3-hydroxyazetidin-1-yl)-N-(5-methylpyrazin-2-yl)propanamide], 490 nM; to `N#Cc1cccc(Cl)c1-n1ncc2c(O[C@@H](CN3CC(O)C3)C(=O)Nc3ccc(Cl)cn3)ncnc21` [Example 240, (2S)-2-[1-(2-chloro-6-cyano-phenyl)pyrazolo[3,4-d]pyrimidin-4-yl]oxy-N-(5-chloro-2-pyridyl)-3-(3-hydroxyazetidin-1-yl)propanamide], 450 nM.
With `O=C(Nc1ccccn1)[C@H](CN1CC(O)C1)Oc1ncnc2c1cnn2-c1ncccc1Cl` [Example 241, (2S)-2-[1-(3-chloro-2-pyridyl)pyrazolo[3,4-d]pyrimidin-4-yl]oxy-3-(3-hydroxyazetidin-1-yl)-N-(2-pyridyl)propanamide] the figure was 350 nM; with `N#Cc1cccc(Cl)c1-n1ncc2c(O[C@@H](CN3CC(O)C3)C(=O)Nc3ccc(F)cn3)ncnc21` [Example 242, (2S)-2-[1-(2-chloro-6-cyano-phenyl)pyrazolo[3,4-d]pyrimidin-4-yl]oxy-N-(5-fluoro-2-pyridyl)-3-(3-hydroxyazetidin-1-yl)propanamide], 220 nM.
